Square brackets hold non-standard residues; d marks the D form. d(pGlu) = O=C1CC[C@H](C(=O)O)N1
Assays:
[1] = tested on: primary cultures of rat pituitary cells; assay: Effect of GnRH antagonist on LH secretion stimulated by [D-Lys6(Emo)]GnRH; format: cell-based; details: [D-Lys6(Emo)]GnRH 20 pM, antagonist 100 nM, 4 h; FIG. 5
Protocol: To determine the effect of a GnRH antagonist ([D-pyr^1, D-Phe^2, D-Trp^3,6]GnRH) on the induction of LH secretion from primary cultures of rat pituitary cells stimulated by [D-Lys^6(Emo)]GnRH, cells were incubated for 4 h at 37° C. with [D-Lys^6(Emo)]GnRH (20 pM) in the absence or presence of the GnRH antagonist (100 nM). The media were collected and LH concentration was determined by RIA (FIG. 5). Results are the mean±SEM of LH concentrations obtained from two experiments (4 wells/experimental group, each).

[2] = Relative hydrophobicity by elution from RP-18 HPLC column; format: physicochemical; details: percent of buffer B in which the analog was eluted from RP-18 column
Text: All chemicals and reagents were of analytical grade. Rink amide resin, 9-fluorenylmethoxycarbonyl (Fmoc) protected amino acid derivatives, and all the reagents for solid-phase peptide synthesis were purchased from Novabiochem (Läufelfingen, Switzerland). Side-chain protecting groups employed for peptide synthesis were as follows: Arg, 2,2,4,6,7-pentamethyldihydrobenzofuran-5-sulfonyl (Pbf); His, trityl (Trt); D-Lys, 4-methyltrityl (Mtt) or tert-butyloxycarbonyl (Boc); Trp, tert-butyloxycarbonyl (Boc); Ser and Tyr, tert-butyl (tBu). Reversed phase HPLC was performed on a Spectra-Physics SP-8800 liquid chromatography system equipped with an Applied Biosystems 757 variable wavelength absorbance detector. HPLC prepacked columns were: Lichrocart, containing Lichrosorb RP-18 (250×10 mm; 7 μm, Merck, Darmstadt, Germany) for semi-preparative purification and Lichrospher 100 RP-18 (250×4 mm; 5 μm, Merck, Darmstadt, Germany) and wide pore butyl C4 (250×4.6 mm; 5 μm, J. T. Baker Inc., Phillipsburg, N.J.) for analytical purposes. HPLC purification and analysis were achieved by using a linear gradient established between 0.1% trifluoroacetic acid […] in water as buffer A and 0.1% TFA in 75% aqueous acetonitrile as buffer B. Eluent composition was 10-100% B over 40 mlin, using RP-18 column, and a gradient of 0-100% B over 40 min employing a wide pore butyl (C4) column. N-(2noro-1,4-naphtoqumonyl)-β-alanine (NQ), 1,6,8-Trihydroxy-3-carboxylic acid-anthraquinone (Emo) and 2-hydroxymethyl-anthraquinone hemiglutarate (AntrQ) were synthesized as described^14,24,27 (for chemical structure see FIG. 1).

[3] = molecular target: T1, rat pituitary GnRH receptors (Rattus norvegicus, UniProt P30969); assay: Displacement binding assay with 125I[D-Lys6]GnRH on rat pituitary membranes; details: vs [D-Lys6]GnRH
T1 construct: from tissue; host or cells: rat pituitary membranes (Wistar-derived rats)
T1 sequence (P30969 1-327): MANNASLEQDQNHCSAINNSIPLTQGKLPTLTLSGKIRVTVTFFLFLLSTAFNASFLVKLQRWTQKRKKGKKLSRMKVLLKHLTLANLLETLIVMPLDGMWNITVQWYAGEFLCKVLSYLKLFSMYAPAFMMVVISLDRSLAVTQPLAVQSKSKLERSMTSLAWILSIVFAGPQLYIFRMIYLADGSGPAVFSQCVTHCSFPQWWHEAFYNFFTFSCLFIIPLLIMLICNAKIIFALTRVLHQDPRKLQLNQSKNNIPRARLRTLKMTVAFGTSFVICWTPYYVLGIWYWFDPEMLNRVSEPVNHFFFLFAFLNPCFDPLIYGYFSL
Protocol: Specific binding was calculated by subtracting the non-specific binding from the maximal binding, determined in the absence of any competing peptide. Results are the mean of two experiments carried out in triplicates. SEM values are omitted for clarity (FIG. 3).

[4] = tested on: primary cultures of rat pituitary cells; assay: LH releasing potency in primary rat pituitary cell cultures; format: cell-based; details: 4 h, 37° C.; compared to [D-Lys6]GnRH; FIG. 4
Protocol: The media were then collected and LH concentration were analyzed by double-antibody radioimmunoassay (RIA)^32 using kits kindly supplied by the National Institute of Arthritis, Metabolism and Digestive Diseases (NIMDD). Results (FIG. 4) are expressed in terms of LH-RP-3 rat reference preparation, and are the mean±SEM of LH concentration of two experiments (4 wells/experimental group, each). The basal release after 4 h was 9.41±2 ng/mL.

LH release = assay: In vivo LH release after intraperitoneal administration; set-up: species or system rat; details: six h after administration; 0.04 vs 0.4 nmol/rat i.p.
Protocol: The ability of [D-Lys^6(Emo)]GnRH to bind GnRH receptors and promote LH release in vitro, prompted the evaluation of its in vivo activity.
Blood samples were withdrawn by cardiac puncture under light ether anesthesia at the indicated time intervals, and serum LH levels were determined by RIA as described above (FIG. 6). Results are the mean±SEM of LH concentrations in the serum of five animals/experimental group. The LH concentration was determined using three different dilutions of each serum sample. Similar results were obtained in two other experiments.

[5] = tested on: testes and prostate glands; assay: Long-term treatment of male rats: weight of testes and prostate glands; format: in vivo; details: 0.1 nmol/rat daily for 7 days vs parent peptide 1 nmol/rat; FIG. 7
Protocol: Control rats were injected daily with 0.5 mL of PBS. Rats were sacrificed 24 h after the last injection, and the testes and prostate glands were immediately dissected and weighed (FIG. 7). Results are the meant±SEM of the weight of the organs (six animals/experimental group).

[6] = molecular target: T2, human serum albumin (HSA) (Homo sapiens, UniProt P02768); assay: Binding to HSA; format: in vitro ADME; details: 37° C., 3 h; FIG. 8
T2 construct: purchased Sigma, St. Louis, Mo
T2 sequence (P02768 25-609): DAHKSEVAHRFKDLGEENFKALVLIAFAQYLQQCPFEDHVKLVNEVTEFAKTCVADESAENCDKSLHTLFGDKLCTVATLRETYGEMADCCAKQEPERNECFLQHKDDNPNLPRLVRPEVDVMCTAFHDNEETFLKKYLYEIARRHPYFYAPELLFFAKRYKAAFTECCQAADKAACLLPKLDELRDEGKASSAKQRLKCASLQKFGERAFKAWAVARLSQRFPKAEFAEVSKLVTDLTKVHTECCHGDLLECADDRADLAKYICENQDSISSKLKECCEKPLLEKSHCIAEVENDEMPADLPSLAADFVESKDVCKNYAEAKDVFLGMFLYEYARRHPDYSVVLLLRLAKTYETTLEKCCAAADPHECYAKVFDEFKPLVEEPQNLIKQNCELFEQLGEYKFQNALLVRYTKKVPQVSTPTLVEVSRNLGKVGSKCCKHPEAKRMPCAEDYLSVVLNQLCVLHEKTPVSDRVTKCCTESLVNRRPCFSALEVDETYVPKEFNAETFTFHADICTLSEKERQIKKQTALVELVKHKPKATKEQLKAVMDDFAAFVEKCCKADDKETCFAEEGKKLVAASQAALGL
Protocol: The concentration of HSA in the solution was determined using a molar extinction coefficient of 39,000 M^−1 cm^−1 at 277.5 nm^33. The unbound compound was then separated from the HSA solution by applying it on to a Centricon® concentrator column (Amicon Inc., Beverly, Mass.) with a band pass membrane of […] according to the manufacture's protocol. The HSA bound compound (˜20 μL) was then precipitated by adding it to acetonitrile (1 mL). The supernatant was kept and the precipitate was dissolved in PBS (100 μL) and re-precipitated. The combined supernatants were evaporated, the residue was dissolved in water containing 0.1% TFA (buffer A) and analyzed by HPLC to determine the amount of the tested compounds. Results represent the mean of two experiments (FIG. 8).

αT3-1 cells [7] = assay: In vitro toxicity / phototoxicity (XTT cell survival); format: cell-based, mouse
Protocol: αT3-1 cells (50,000 cells/well) were plated in 96-well tissue culture plates in 0.1 mL of complete medium. After 24 h the medium was changed and cells were incubated in the same medium (without serum and phenol red) containing different concentrations of the tested compounds for 4 h at 37° C. The cells were then washed (×3) with PBS and illuminated (λmax=400 nm) in PBS. The fluence rate was 14.3 mW cm^−2 with a total fluence of 17 J cm^−2. Following illumination the media were replaced by complete medium and the plates were incubated for additional 24 h at 37° C. Cell survival was determined using the XTT (Biological Industries, Beit-Haemek, Israel) kit following the manufacture's protocol. Values are expressed as % survival.

αT3-1 cells [8] = assay: DNA fragmentation assay; format: cell-based, mouse; details: 10 μM, FIG. 10
Protocol: FIG. 10. DNA cleavage in cells treated with [D-Lys^6(Emo)]GnRH and emodic acid. αT3-1 cells were incubated; in darkness with 10 μM of the tested compounds, washed and illuminated. After 24 h of incubation DNA was isolated and analyzed by gel electrophoresis. Lanes 1, 3 and 5 represent DNA of cells treated with 1% DMSO in PBS, emodic acid or [D-Lys^6(Emo)]GnRH, respectively, followed by illumination. Lane 2, 4 and 6 represent cells treated with 1% DMSO in PBS, emodic acid, or [D-Lys^6(Emo)]GnRH, respectively, in darkness.
αT3-1 cells (×10^6/dish) were incubated in phenol red and serum free complete medium (37° C., 5% CO2) with the tested compounds for 5 h in the dark. Cells were then washed with PBS (×3) and illuminated or remained in darkness as described earlier. The media were then replaced by complete medium and cells were incubated for additional 24 h. DNA was then isolated, using Wizard® genomic DNA purification kit (Promega, Madison, Wis.) following the company's protocol and analyzed by gel electrophoresis (0.4% cross linked agarose, ethidium bromide staining).

## [D-pGlu^1, D-Phe^2, D-Trp^3,6]GnRH ([d(pGlu)][dF][dW]SY[dW]LRPG-NH2; SMILES CC(C)C[C@H](NC(=O)[C@@H](Cc1c[nH]c2ccccc12)NC(=O)[C@H](Cc1ccc(O)cc1)NC(=O)[C@H](CO)NC(=O)[C@@H](Cc1c[nH]c2ccccc12)NC(=O)[C@@H](Cc1ccccc1)NC(=O)[C@H]1CCC(=O)N1)C(=O)N[C@@H](CCCNC(=N)N)C(=O)N1CCC[C@H]1C(=O)NCC(N)=O) [GnRH antagonist]
[1]
  inhibition of [D-Lys6(Emo)]GnRH-induced LH secretion: completely inhibited

## CC(C)C[C@H](NC(=O)[C@@H](CCCCNC(=O)c1cc(O)c2c(c1)C(=O)c1cc(O)cc(O)c1C2=O)NC(=O)[C@H](Cc1ccc(O)cc1)NC(=O)[C@H](CO)NC(=O)[C@H](Cc1c[nH]c2ccccc12)NC(=O)[C@H](Cc1c[nH]cn1)NC(=O)[C@@H]1CCC(=O)N1)C(=O)N[C@@H](CCCNC(=N)N)C(=O)N1CCC[C@H]1C(=O)NCC(N)=O [[D-Lys^6(Emo)]GnRH, [D-Lys^6(1,3,8-trihydroxy-6-carboxy-anthraquinone)]GnRH]
[2]
  Hydrophobicity (% B): 66 % B
[3]
  reduction of affinity to GnRH receptors compared to the parent peptide: about 3 fold
[4]
  LH releasing activity in vitro: highest bioactivity
LH release
  LH levels relative to group treated with [D-Lys6]GnRH: about 6 folds
[5]
  decrease in testicular and ventral prostate gland weights: greater decrease
[6]
  binding to HSA: binds significantly to HSA
αT3-1 cells [7]; 10 μM, illuminated, FIG. 9
  phototoxicity to αT3-1 cells: did not exhibit any toxicity
αT3-1 cells [7]; incubated in the dark
  toxicity to αT3-1 cells in the dark: did not show any toxicity
αT3-1 cells [8]; darkness
  DNA fragmentation in the dark: did not cause any DNA fragmentation
αT3-1 cells [8]; illuminated
  DNA fragmentation upon illumination: but not [D-Lys^6(Emo)]GnRH (lane 5) induced DNA fragmentation

From patent US20060100154A1, “Long-acting gonadotropin-releasing hormone analogs and methods of use thereof” (YEDA RESEARCH AND DEVELOPMENT CO, priority 2005, published 2006)
